{
  "source": "ChEMBL document CHEMBL2074570",
  "about": "“The farnesyl protein transferase inhibitor SCH66336 is a potent inhibitor of MDR1 product P-glycoprotein” (Cancer Res, 2001)",
  "target": "ATP-dependent translocase ABCB1 (Homo sapiens, UniProt P08183)",
  "sequence (P08183 whole entry)": "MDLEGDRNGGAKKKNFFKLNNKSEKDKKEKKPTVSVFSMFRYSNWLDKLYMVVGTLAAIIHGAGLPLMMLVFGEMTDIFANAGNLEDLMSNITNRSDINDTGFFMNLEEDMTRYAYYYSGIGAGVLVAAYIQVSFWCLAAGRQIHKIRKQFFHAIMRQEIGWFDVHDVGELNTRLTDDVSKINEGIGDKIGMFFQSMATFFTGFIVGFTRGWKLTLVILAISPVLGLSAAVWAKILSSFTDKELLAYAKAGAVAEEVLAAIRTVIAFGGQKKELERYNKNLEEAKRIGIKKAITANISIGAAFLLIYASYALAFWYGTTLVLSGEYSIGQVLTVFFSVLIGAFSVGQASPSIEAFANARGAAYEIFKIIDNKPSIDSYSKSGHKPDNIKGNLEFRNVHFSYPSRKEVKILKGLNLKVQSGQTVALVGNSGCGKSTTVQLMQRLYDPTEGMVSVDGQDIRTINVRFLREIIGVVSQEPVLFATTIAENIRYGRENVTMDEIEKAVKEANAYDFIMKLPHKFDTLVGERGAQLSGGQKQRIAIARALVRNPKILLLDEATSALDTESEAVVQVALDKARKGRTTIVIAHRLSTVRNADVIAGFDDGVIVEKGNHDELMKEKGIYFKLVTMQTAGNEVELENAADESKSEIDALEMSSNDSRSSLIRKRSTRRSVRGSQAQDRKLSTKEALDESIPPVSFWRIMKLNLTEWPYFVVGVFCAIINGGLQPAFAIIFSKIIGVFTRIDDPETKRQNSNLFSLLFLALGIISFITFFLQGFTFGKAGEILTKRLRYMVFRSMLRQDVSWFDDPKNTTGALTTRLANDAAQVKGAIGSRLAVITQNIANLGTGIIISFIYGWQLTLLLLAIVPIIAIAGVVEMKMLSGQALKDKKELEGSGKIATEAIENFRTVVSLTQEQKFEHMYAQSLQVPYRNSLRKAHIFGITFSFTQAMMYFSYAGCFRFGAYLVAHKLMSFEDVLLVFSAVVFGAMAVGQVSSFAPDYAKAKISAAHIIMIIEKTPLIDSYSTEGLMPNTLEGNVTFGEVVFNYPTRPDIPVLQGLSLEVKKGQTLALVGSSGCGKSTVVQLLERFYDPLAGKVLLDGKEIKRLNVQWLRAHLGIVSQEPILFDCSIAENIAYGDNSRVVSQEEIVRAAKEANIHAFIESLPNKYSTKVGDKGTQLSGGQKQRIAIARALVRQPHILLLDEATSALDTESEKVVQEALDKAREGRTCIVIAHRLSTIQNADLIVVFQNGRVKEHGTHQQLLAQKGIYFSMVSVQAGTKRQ",
  "experiment": "TP_TRANSPORTER: inhibition of DNR efflux (DNR: ? uM) in MDR1-expressing NIH3T3 cells",
  "type": "functional, cell-based",
  "data": [
    {"smiles": "NC(=O)N1CCC(CC(=O)N2CCC([C@H]3c4ncc(Br)cc4CCc4cc(Cl)cc(Br)c43)CC2)CC1", "note": "[LONAFARNIB]", "values": [
      {"measurement": "IC50", "result": 2700, "unit": "nM"}
    ]}
  ]
}
